Results taken from patent publication US20190161807A1, “RAD51C as a Human Cancer Susceptibility Gene” (Heinrich-Heine-Universität Düsseldorf, priority 2010, published 2019).

System: RAD51C bi-allelic mutated cells
Assay: Toxicity of PARP inhibitor / topoisomerase I inhibitor exposure in cells with reduced or absent RAD51C function (FIG. 5, FIG. 6)
Type: cell-based
Details: RAD51C bi-allelic mutated cells vs normal cells, mono-allelic RAD51C mutated cells and RAD51C-complemented cells

| SMILES | sensitivity (toxicity) of cells towards exposure to the PARP inhibitor (FIG. 5, means±SD, n=3) | sensitivity (toxicity) of cells towards exposure to the topoisomerase I inhibitor (FIG. 6, means±SD, n=4) |
| --- | --- | --- |
| CN(C)CC(=O)Nc1ccc2[nH]c(=O)c3ccccc3c2c1 [PJ34] | increased toxicities |  |
| CC[C@@]1(O)C(=O)OCc2c1cc1n(c2=O)Cc2cc3ccccc3nc2-1 [camptothecin] |  | increased toxicities |
